Test results: publication PMC8296573, “Synthesis and Biological Evaluation of Fingolimod Derivatives as Antibacterial Agents” (ACS Omega, 2021)
Values after ≈ are worked out from the molar mass of the structure shown. Read-outs that look alike come from different tables or passages of the source.

Tests used:
A. baumannii NCTC 13423 = assay: Antibacterial activity, pre-exposure; format: cell-based, Acinetobacter baumannii; conditions: for Average inhibition %, biofilms viability / Average inhibition %, planktonic cells viability / inhibition at 10 µM / inhibition at 15 µM / inhibition at 25 µM / inhibition at 50 µM: A. baumannii NCTC 13423, pre-exposure, ± SD; for inhibition at 10 µM / inhibition at 15 µM / inhibition at 25 µM / inhibition at 50 µM / MIC: Acinetobacter baumannii, NCTC13423
Summary of the method: (§1)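 Pre-exposure format: compound and bacterial culture co-incubated 18 h, 37 °C, aerobic, 220 rpm. Planktonic: turbidity (OD) plus resazurin viability, 20 μM final. Biofilm: PBS wash, 20 μM resazurin, then ethanol fixation and crystal violet staining, A595.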

S. aureus ATCC 25923 [1] = assay: Antibacterial activity, pre-exposure (planktonic cells and biofilm formation); format: cell-based, Staphylococcus aureus; conditions: for MIC / inhibition at 5 µM / inhibition at 10 µM / inhibition at 15 µM / inhibition at 25 µM: Staphylococcus aureus, ATCC25923; for inhibition at 5 µM / inhibition at 10 µM / inhibition at 15 µM / inhibition at 25 µM / Average inhibition %, biofilms viability / Average inhibition %, planktonic cells viability: pre-exposure, ± SD
Summary of the method: as §1

S. aureus ATCC 25923 [2] = assay: Antibacterial activity, post-exposure on preformed 18-h-old biofilms; format: cell-based, Staphylococcus aureus; conditions: ± SD; for inhibition at 25 µM / inhibition at 50 µM / inhibition at 100 µM / inhibition at 200 µM: Staphylococcus aureus; for inhibition at 25 µM: ATCC25923, 25 µM; for inhibition at 50 µM: ATCC25923, 50 µM; for inhibition at 100 µM: ATCC25923, 100 µM; for inhibition at 200 µM: ATCC25923, 200 µM
Summary of the method: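 Compounds were applied to preformed 18-h biofilms after medium change and left 24 h. Read-outs: planktonic OD plus resazurin fluorescence (20 μM), biofilm metabolic activity by resazurin 30 min at 37 °C, then biomass by crystal violet absorbance at 595 nm after ethanol fixation.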

P. aeruginosa ATCC 9027 = assay: Antibacterial activity, pre-exposure; format: cell-based, Pseudomonas aeruginosa; conditions: for Average inhibition %, biofilms viability / Average inhibition %, planktonic cells viability / inhibition at 50 µM / inhibition at 100 µM / inhibition at 150 µM / inhibition at 200 µM: P. aeruginosa ATCC 9027, pre-exposure, ± SD; for MIC / inhibition at 50 µM / inhibition at 100 µM / inhibition at 150 µM / inhibition at 200 µM: Pseudomonas aeruginosa; for inhibition at 50 µM / inhibition at 100 µM / inhibition at 150 µM / inhibition at 200 µM: ATCC9027
Summary of the method: as §1

[3] = 10 µM, read-out: Average inhibition %, biofilms biomass
[4] = 10 µM, read-out: Average inhibition %, planktonic cells turbidity
[5] = 15 µM, read-out: Average inhibition %, biofilms biomass
[6] = 15 µM, read-out: Average inhibition %, planktonic cells turbidity
[7] = 25 µM, read-out: Average inhibition %, biofilms biomass
[8] = 25 µM, read-out: Average inhibition %, planktonic cells turbidity
[9] = 50 µM, read-out: Average inhibition %, biofilms biomass
[10] = 50 µM, read-out: Average inhibition %, planktonic cells turbidity
[11] = read-out: Average inhibition %, biofilms biomass
[12] = read-out: Average inhibition %, planktonic cells turbidity

CCCCCCCCCCc1ccc(CCC(N)(CO)CO)nc1 [Compound 62, 2-Amino-2-[2-(5-decylpyridin-2-yl)ethyl]propane-1,3-diol]
Average inhibition %, biofilms viability (A. baumannii NCTC 13423; 10 µM): 40 ± 33.9%
Average inhibition %, planktonic cells viability (A. baumannii NCTC 13423; 10 µM): 37.7 ± 25.3%
Average inhibition %, biofilms viability (A. baumannii NCTC 13423; 15 µM): 100.5 ± 1%
Average inhibition %, planktonic cells viability (A. baumannii NCTC 13423; 15 µM): 99.8 ± 0.4%
Average inhibition %, biofilms viability (A. baumannii NCTC 13423; 25 µM): 101.2 ± 1.3%
Average inhibition %, planktonic cells viability (A. baumannii NCTC 13423; 25 µM): 99.7 ± 0.3%
Average inhibition %, biofilms viability (A. baumannii NCTC 13423; 50 µM): 101.3 ± 1.2%
Average inhibition %, planktonic cells viability (A. baumannii NCTC 13423; 50 µM): 99.7 ± 0.2%
inhibition at 10 µM (A. baumannii NCTC 13423; [3]): 21.3 ± 18.9%
inhibition at 10 µM (A. baumannii NCTC 13423; [4]): 46 ± 39.6%
inhibition at 15 µM (A. baumannii NCTC 13423; [5]): 85.4 ± 2%
inhibition at 15 µM (A. baumannii NCTC 13423; [6]): 99.3 ± 0.9%
inhibition at 25 µM (A. baumannii NCTC 13423; [7]): 83.1 ± 3%
inhibition at 25 µM (A. baumannii NCTC 13423; [8]): 99.2 ± 0.9%
inhibition at 50 µM (A. baumannii NCTC 13423; [9]): 79 ± 9.4%
inhibition at 50 µM (A. baumannii NCTC 13423; [10]): 98.8 ± 0.9%
MIC (A. baumannii NCTC 13423; pre-exposure, Inactive = no activity up to 50 μM, > = some inhibition but no MIC reached, read-out: MIC A. baumannii NCTC 13423): 15 µM (≈ 5.05 µg/mL)
MIC (A. baumannii NCTC 13423; supplementary molecular formula strings sheet, read-out: MIC (A. baumannii)): 15 µM (≈ 5.05 µg/mL)
MIC (S. aureus ATCC 25923 [1]; lowest concentration with no visible growth (>90% inhibition of turbidity and viability of planktonic cells), 18 h, read-out: MIC S. aureus ATCC 25923): 15 µM (≈ 5.05 µg/mL)
inhibition at 5 µM (S. aureus ATCC 25923 [1]; 5 µM, read-out: Average inhibition %, biofilms biomass): 34.5 ± 10.1%
inhibition at 5 µM (S. aureus ATCC 25923 [1]; 5 µM, read-out: Average inhibition %, planktonic cells turbidity): 9.5 ± 10.5%
inhibition at 10 µM (S. aureus ATCC 25923 [1]; [3]): 46 ± 8%
inhibition at 10 µM (S. aureus ATCC 25923 [1]; [4]): 15.6 ± 7.5%
inhibition at 15 µM (S. aureus ATCC 25923 [1]; [5]): 91.8 ± 5.5%
inhibition at 15 µM (S. aureus ATCC 25923 [1]; [6]): 85.8 ± 12.4%
inhibition at 25 µM (S. aureus ATCC 25923 [1]; [7]): 94.8 ± 1.6%
inhibition at 25 µM (S. aureus ATCC 25923 [1]; [8]): 99.1 ± 0.7%
MIC (S. aureus ATCC 25923 [1]; read-out: MIC (S. aureus)): 15 µM (≈ 5.05 µg/mL)
MIC S. aureus ATCC 25923 (S. aureus ATCC 25923 [1]; lowest concentration with no visible growth (>90% inhibition of turbidity and viability of planktonic cells), 18 h): same MIC as fingolimod
Average inhibition %, biofilms viability (S. aureus ATCC 25923 [1]; 5 µM): 23.3 ± 7.1%
Average inhibition %, planktonic cells viability (S. aureus ATCC 25923 [1]; 5 µM): 0 ± 0%
Average inhibition %, biofilms viability (S. aureus ATCC 25923 [1]; 10 µM): 35.7 ± 5.8%
Average inhibition %, planktonic cells viability (S. aureus ATCC 25923 [1]; 10 µM): 0 ± 0%
Average inhibition %, biofilms viability (S. aureus ATCC 25923 [1]; 15 µM): 95.2 ± 3.8%
Average inhibition %, planktonic cells viability (S. aureus ATCC 25923 [1]; 15 µM): 92.4 ± 6.5%
Average inhibition %, biofilms viability (S. aureus ATCC 25923 [1]; 25 µM): 99.6 ± 0.2%
Average inhibition %, planktonic cells viability (S. aureus ATCC 25923 [1]; 25 µM): 100 ± 0.1%
Average inhibition %, biofilms viability (S. aureus ATCC 25923 [2]; 25 µM): 12.6 ± 12.7%
Average inhibition %, planktonic cells viability (S. aureus ATCC 25923 [2]; 25 µM): 0 ± 0%
Average inhibition %, biofilms viability (S. aureus ATCC 25923 [2]; 50 µM): 37.2 ± 4.9%
Average inhibition %, planktonic cells viability (S. aureus ATCC 25923 [2]; 50 µM): 0 ± 0%
Average inhibition %, biofilms viability (S. aureus ATCC 25923 [2]; 100 µM): 56.4 ± 12%
Average inhibition %, planktonic cells viability (S. aureus ATCC 25923 [2]; 100 µM): 55.8 ± 42.1%
Average inhibition %, biofilms viability (S. aureus ATCC 25923 [2]; 200 µM): 99.3 ± 0.3%
Average inhibition %, planktonic cells viability (S. aureus ATCC 25923 [2]; 200 µM): 100.1 ± 0.1%
inhibition at 25 µM (S. aureus ATCC 25923 [2]; [11]): 43.1 ± 11%
inhibition at 25 µM (S. aureus ATCC 25923 [2]; [12]): 15.7 ± 12.5%
inhibition at 50 µM (S. aureus ATCC 25923 [2]; [11]): 63.9 ± 10.9%
inhibition at 50 µM (S. aureus ATCC 25923 [2]; [12]): 16.7 ± 24.2%
inhibition at 100 µM (S. aureus ATCC 25923 [2]; [11]): 76.2 ± 5.6%
inhibition at 100 µM (S. aureus ATCC 25923 [2]; [12]): 57.6 ± 29.3%
inhibition at 200 µM (S. aureus ATCC 25923 [2]; [11]): 80.8 ± 3.8%
inhibition at 200 µM (S. aureus ATCC 25923 [2]; [12]): 89.9 ± 1.7%
Average inhibition %, biofilms viability (P. aeruginosa ATCC 9027; 50 µM): 13.5 ± 11.7%
Average inhibition %, planktonic cells viability (P. aeruginosa ATCC 9027; 50 µM): 18.7 ± 18.1%
Average inhibition %, biofilms viability (P. aeruginosa ATCC 9027; 100 µM): 13.6 ± 3.2%
Average inhibition %, planktonic cells viability (P. aeruginosa ATCC 9027; 100 µM): 39.6 ± 45.8%
Average inhibition %, biofilms viability (P. aeruginosa ATCC 9027; 150 µM): 27.7 ± 14.8%
Average inhibition %, planktonic cells viability (P. aeruginosa ATCC 9027; 150 µM): 76.3 ± 19.2%
Average inhibition %, biofilms viability (P. aeruginosa ATCC 9027; 200 µM): 61.8 ± 34.8%
Average inhibition %, planktonic cells viability (P. aeruginosa ATCC 9027; 200 µM): 94.7 ± 4.6%
MIC (P. aeruginosa ATCC 9027; ATCC9027, pre-exposure, Inactive = no activity up to 200 μM, > = some inhibition but no MIC reached, read-out: MIC P. aeruginosa ATCC 9027): > 200 µM
MIC (P. aeruginosa ATCC 9027; ATCC9027, supplementary molecular formula strings sheet, read-out: MIC (P. aeruginosa)): > 200 µM
inhibition at 50 µM (P. aeruginosa ATCC 9027; [9]): 19.7 ± 9.7%
inhibition at 50 µM (P. aeruginosa ATCC 9027; [10]): 35.6 ± 9.3%
inhibition at 100 µM (P. aeruginosa ATCC 9027; 100 µM, read-out: Average inhibition %, biofilms biomass): 18.6 ± 19.2%
inhibition at 100 µM (P. aeruginosa ATCC 9027; 100 µM, read-out: Average inhibition %, planktonic cells turbidity): 58 ± 23%
inhibition at 150 µM (P. aeruginosa ATCC 9027; 150 µM, read-out: Average inhibition %, biofilms biomass): 21 ± 3.9%
inhibition at 150 µM (P. aeruginosa ATCC 9027; 150 µM, read-out: Average inhibition %, planktonic cells turbidity): 84.5 ± 4.1%
inhibition at 200 µM (P. aeruginosa ATCC 9027; 200 µM, read-out: Average inhibition %, biofilms biomass): 38.5 ± 47.1%
inhibition at 200 µM (P. aeruginosa ATCC 9027; 200 µM, read-out: Average inhibition %, planktonic cells turbidity): 92.5 ± 5%
